Measurements published in patent US6187906A, “Methods to improve neural outcome” (Aukland Uniservices Limited, priority 1998, dated 2001).

Assays:
[1] = tested on: mesencephalic neurons (dopaminergic); assay: Dopamine uptake in 6-OHDA treated embryonic mesencephalic cultures (Experiment 8); type: cell-based, Wistar rat; conditions: 0.01-100 μM GPE, 4 μM 6-OHDA
Protocol: Wistar rat ventral mesencephali from E15 (E1=plug) fetuses were dissected, pooled, and gently dissociate by repeated trituration in 3 ml of sterile modified Krebs-Ringer medium (Gibco, Life Technologies Ltd., NZ) supplemented per liter with 50,000 IU penicillin, 50 mg streptomycin, 1.26 g NaHCO3, and 2.2 g glucose. 2 ml of media was added and the suspension allowed to stand for 7 minutes, after which the supernatant was centrifuged for 7 minutes at 350 xg. The pellet was resuspended in serum-containing media: MEM media with 50,000 IU penicillin, 50 mg streptomycin, 1.26 g NaHCO3 and 5% fetal calf serum (Gibco). Cells were seeded at 2.5-4.0×10^5 trypan-excluding viable cells/cm^2 in sterile 24 well plates precoated for two hours with 5 μg/ml poly-L lysine in H2 O. Cultures were allowed to recover for 24 h at 37° C. in a humidified 95% air: 5% CO2 incubator. […]
Cultures were assayed for dopamine uptake using a modified procedure of Prochiantz et al., 1981 (Nature, Vol. 293, No., 5833). […] The wells were then rinsed with 250 μl 1% Triton X-100 and the contents added to the appropriate scintillation vial containing 4 ml of Ready safe scintillation fluid (Beckman, Palo Alto, Calif.). […]

[2] = tested on: neurons in the CA1-2 region of the hippocampus; type: in vivo, Wistar rats
Protocol: The objective of this study was to compare the effects of treatment with GPE to that of a vehicle given 2 hours after an hypoxic-ischemic injury. The dose range of 2 to 200 μg was chosen to span a range of systemic doses that are greater than that required centrally (see experiment 3).
Unilateral hypoxic-ischemic injury was induced in 21 day old, 45±5 g Wistar rats. The rats underwent unilateral carotid ligation under light halothane anaesthesia.
Following one hour recovery they were placed in an incubator at 34 deg C. 85±5% humidity for one hour before the injury. They were subjected to […] inhalation hypoxia (Fi02.8.0%) and then returned to room temperature (22 deg C.) and normoxia. […]
Surviving and dead neurons were discriminated using the thionin/acid fuchsin staining technique (Guan et al J Cereb Blood Flow Metab. 13:609-616 (1993). The results, in which the height of a point is given by the ratio as a percentage of live neurones in the CA1-2 region on the right side to the number on the left side are shown in FIG. 5. Column A is vehicle, column B is 2 μg of GPE, column C is 20 μg of GPE, and column D is 200 μg of GPE. In this figure, the P value (0.031) was calculated by a method using one way ANOVA comparing many groups after Arcsin transformation.

substantia nigra neurons = assay: Medial forebrain bundle transection, TH immunopositive cell survival (Experiment 7); type: in vivo, Wistar rats; conditions: lesioned side; daily supranigral GPE 0.3 μg for two weeks
Protocol: Adult male Wistar rats (200-220 g) were anaesthetized with 75 mg/kg Nembutal and positioned in a stereotaxic apparatus. Unilateral transection of the medial forebrain bundle which contains the ascending nigral dopaminergic projection fibers was made 1.3 mm rostral to the rostral tip of the substantia nigra using a retractable wire knife (David Kopf Instruments, Tujunga, Calif.). The knife was lowered into the brain using the following coordinates from the atlas of Paxinos and Watson (1996), Sydney: Academic Press: 3.3 mm posterior to Bregma, 2.4 mm lateral from midline, and 8.5 mm ventral from skull, the blade was extended 2.0 mm toward midline, raised 2.5 mm dorsally, retracted and extended again, and then returned 2.5 mm ventrally. The wire blade was retracted and the knife withdrawn. Next, a 22-gauge metal guide cannula was permanently fixed into place supranigrally at 5.0 mm posterior to Bregma, 2.0 mm lateral to midline, and 6.8 mm ventral to skull. A second set of intact unlesioned rats were cannulated supranigrally at the same coordinates. […]
Immunopositive cells were counted in the central substantia nigra. […] To reveal percent survival, percent changes were calculated by dividing the ipsilateral value by contralateral value.

[3] = [3H]-GPE quantitative receptor autoradiography in coronal brain sections; type: binding, rat; conditions: 1 hour room temperature, right side neurons absent due to injury, little reaction
Protocol: A histological experiment to locate GPE binding sites within the rat brain employed quantitative receptor autoradiography to locate [3H]-GPE binding in coronal sections of the brain as previously described in Dragunow et al (1988, Brain Research 462, 252-257). Fresh frozen brain sections were cut on a cryostat and stored at -80 deg C. until use. Sections were then thawed and pre-incubated with 50 mM Tris HCl (pH 7.4) for 10 minutes at room temperature (250 μl per section). Sections were then dried and 250 μl per section of 5×10^5 counts/min^-1 of [3H]-GPE also made up in Tris HCl buffer (50 mM, pH 7.4) was added for 1 hour at room temperature. Sections were then washed two times for one minute each in ice-cold Tris-HCl followed by one rinse for 1 minute in ice-cold distilled water. Sections were then dried overnight at 4 deg C. and apposed to [3H] sensitive film for 2 weeks, and then developed to produce autoradiograms.

NCC(=O)N1CCC[C@H]1C(=O)N[C@@H](CCC(=O)O)C(=O)O [GPE, gly-pro-glu]
protection from 6-OHDA toxicity (dopamine uptake) [1]: protects mesencephalic neurons | loss of neurons in the CA1-2 region of the hippocampus ([2]; 20 μg GPE single intraperitoneal injection 2 hours after injury, 120 hrs, p<0.05): reduced the loss of neurons | crossing of the blood-brain barrier ([2]; rat, in vivo): can cross the blood-brain barrier | percent cell survival of TH immunopositive neurons (substantia nigra neurons): increased | [3H]-GPE binding in hippocampus [3]: left hippocampus has bound the radioactive material
